Five molecules from patent US8680012B2, “4-phenyl-pyrane-3,5-diones,4-phenyl-thiopyrane-3,6-diones and cyclohexanetriones as novel herbicides” (Syngenta Crop Protection LLC, priority 2006, dated 2014) can be followed below.

Holding throughout (assay type): in vivo
The test system of test [1] is Alopecurus myosuroides (ALOMY). The experiment in a line: Example A pre-emergence herbicidal activity, glasshouse pot test. The settings on record: 480 h, evaluated 20 days after spraying, read-out: Pre-emergence activity ALOMY (100=total damage to plant; 0=no damage to plant); for pest or weed control at 250 g/ha: rate 250 g/ha; for pest or weed control at 500 g/ha: rate 500 g/ha. As to the method:
(§1) Seeds of a variety of test species were sown in standard soil in pots. After cultivation for one day (pre-emergence) or after 10 days cultivation (post-emergence) under controlled conditions in a glasshouse, the plants were sprayed with an aqueous spray solution derived from the formulation of the technical active ingredient in 0.6 ml acetone and 45 ml formulation solution containing 10.6% Emulsogen EL (Registry number 61791-12-6), 42.2% N-methylpyrrolidone, 42.2% dipropylene glycol monomethyl ether (Registry number 34590-94-8) and 0.2% X-77 (Registry number 11097-66-8). The test plants were then grown in a greenhouse under optimum conditions until, 15 days later for post-emergence and 20 days for pre-emergence, the test was evaluated (100=total damage to plant; 0=no damage to plant).
(§2) Alopecurus myosuroides (ALOMY), Avena fatua (AVEFA), Lolium perenne (LOLPE), Setaria faberi (SETFA), Digitaria sanguinalis (DIGSA), Echinochloa crus-galli (ECHCG)

The subject of test [2] is Avena fatua (AVEFA). The description is as above. The note with it: 480 h, evaluated 20 days after spraying, read-out: Pre-emergence activity AVEFA (100=total damage to plant; 0=no damage to plant); for pest or weed control at 250 g/ha: rate 250 g/ha; for pest or weed control at 500 g/ha: rate 500 g/ha. The protocol:
as §1, §2

The test system of test [3] is Digitaria sanguinalis (DIGSA). The description is as above. The note with it: 480 h, evaluated 20 days after spraying, read-out: Pre-emergence activity DIGSA (100=total damage to plant; 0=no damage to plant); for pest or weed control at 250 g/ha: rate 250 g/ha; for pest or weed control at 500 g/ha: rate 500 g/ha. As to the method:
as §1, §2

The subject of test [4] is Echinochloa crus-galli (ECHCG). The description is as above. The note with it: 480 h, evaluated 20 days after spraying, read-out: Pre-emergence activity ECHCG (100=total damage to plant; 0=no damage to plant); for pest or weed control at 250 g/ha: rate 250 g/ha; for pest or weed control at 500 g/ha: rate 500 g/ha. As to the method: as §1, §2
Test [5] concerns Lolium perenne (LOLPE). Described as above. The settings on record: 480 h, evaluated 20 days after spraying, read-out: Pre-emergence activity LOLPE (100=total damage to plant; 0=no damage to plant); for pest or weed control at 250 g/ha: rate 250 g/ha; for pest or weed control at 500 g/ha: rate 500 g/ha. The protocol: as §1, §2
Test [6] concerns Setaria faberi (SETFA). The description is as above. The note with it: 480 h, evaluated 20 days after spraying, read-out: Pre-emergence activity SETFA (100=total damage to plant; 0=no damage to plant); for pest or weed control at 250 g/ha: rate 250 g/ha; for pest or weed control at 500 g/ha: rate 500 g/ha. The protocol: as §1, §2
In test [7] the test system is Alopecurus myosuroides (ALOMY). The experiment in a line: Example A post-emergence herbicidal activity, glasshouse pot test. The settings on record: 360 h, rate 125 g/ha, evaluated 15 days after spraying, read-out: Post-emergence activity ALOMY (100=total damage to plant; 0=no damage to plant). As to the method:
as §1, §2

Test [8] has as its system Avena fatua (AVEFA). Described as above. The note with it: 360 h, rate 125 g/ha, evaluated 15 days after spraying, read-out: Post-emergence activity AVEFA (100=total damage to plant; 0=no damage to plant). The protocol: as §1, §2
For test [9], the system named is Digitaria sanguinalis (DIGSA). The test is described as above. The note with it: 360 h, rate 125 g/ha, evaluated 15 days after spraying, read-out: Post-emergence activity DIGSA (100=total damage to plant; 0=no damage to plant). The protocol: as §1, §2
In test [10] the test system is Echinochloa crus-galli (ECHCG). The test is described as above. The note with it: 360 h, rate 125 g/ha, evaluated 15 days after spraying, read-out: Post-emergence activity ECHCG (100=total damage to plant; 0=no damage to plant). The protocol:
as §1, §2

Test [11] deals with Lolium perenne (LOLPE). Described as above. The note with it: 360 h, rate 125 g/ha, evaluated 15 days after spraying, read-out: Post-emergence activity LOLPE (100=total damage to plant; 0=no damage to plant). As to the method: as §1, §2
Test [12] deals with Setaria faberi (SETFA). The test is described as above. The settings on record: 360 h, rate 125 g/ha, evaluated 15 days after spraying, read-out: Post-emergence activity SETFA (100=total damage to plant; 0=no damage to plant). The protocol: as §1, §2

With `Cc1ccc(-c2ccc(C(F)(F)F)cc2)cc1C1=C(O)C(C)(C)OC(C)(C)C1=O` [Compound A-10], the pest or weed control at 250 g/ha in test [1] came to 40%; in the test with Avena fatua (AVEFA) [2], 50%; in test [3] it was 100%; in test [4] it was 100%; with Lolium perenne (LOLPE) [5] it was 60%; in the test on Setaria faberi (SETFA) [6], 100%. For the same molecule, the pest or weed control at 125 g/ha was 30% in test [7]; 20% in the test on Avena fatua (AVEFA) [8]; 100% in test [9]; 100% in test [10]; 0% in the test on Lolium perenne (LOLPE) [11]; 50% in the test on Setaria faberi (SETFA) [12].
Consider `Cc1ccc(-c2ccc(Cl)cc2)cc1C1=C(O)COCC1=O` [Compound A-3], for which the pest or weed control at 500 g/ha worked out at 30% in test [1]; 20% in the test with Avena fatua (AVEFA) [2]; 70% in test [3]; 70% in test [4]; 20% with Lolium perenne (LOLPE) [5]; 50% with Setaria faberi (SETFA) [6]. Further, the pest or weed control at 125 g/ha worked out at 0% in [7]; 0% with Avena fatua (AVEFA) [8]; 40% in test [9]; 70% in test [10]; 0% in the test on Lolium perenne (LOLPE) [11]; 60% in the test on Setaria faberi (SETFA) [12].
For `CCc1ccc(-c2ccc(Cl)cc2)cc1C1=C(O)COCC1=O` [Compound A-2], the pest or weed control at 500 g/ha in test [1] is 50%; in the test with Avena fatua (AVEFA) [2] it was 50%; in test [3], 10%; in test [4] it was 100%; in the test with Lolium perenne (LOLPE) [5], 60%; in the test on Setaria faberi (SETFA) [6], 70%. Moreover, the pest or weed control at 125 g/ha is 20% in [7]; 20% in the test on Avena fatua (AVEFA) [8]; 50% in test [9]; 80% in test [10]; 0% with Lolium perenne (LOLPE) [11]; 80% with Setaria faberi (SETFA) [12].
As for `Cc1ccc(-c2ccc(Cl)cc2C)cc1C1=C(O)C(C)(C)OC(C)(C)C1=O` [Compound A-51], the pest or weed control at 250 g/ha in test [1] was determined as 0%; with Avena fatua (AVEFA) [2], 0%; in [3] it was 50%; in test [4], 50%; in the test with Lolium perenne (LOLPE) [5] it was 40%; in the test with Setaria faberi (SETFA) [6], 10%. The pest or weed control at 125 g/ha in [7] is 10%; in the test with Avena fatua (AVEFA) [8], 20%; in test [9], 60%; in test [10], 80%; with Lolium perenne (LOLPE) [11] it was 0%; in the test on Setaria faberi (SETFA) [12], 40%.
With `Cc1ccc(-c2ccc(F)cc2)cc1C1=C(O)C(C)(C)OC(C)(C)C1=O` [Compound A-9], the pest or weed control at 500 g/ha stood at 20% in test [1]; 30% with Avena fatua (AVEFA) [2]; 50% in test [3]; 50% in test [4]; 20% in the test with Lolium perenne (LOLPE) [5]; 60% in the test with Setaria faberi (SETFA) [6]. In addition, the pest or weed control at 125 g/ha stood at 50% in test [7]; 0% with Avena fatua (AVEFA) [8]; 80% in test [9]; 80% in test [10]; 30% with Lolium perenne (LOLPE) [11]; 80% in the test on Setaria faberi (SETFA) [12].
